In experiment [1] the test system is MV4-11 (FLT3 ITD+/+ mutant type). As to the kind of experiment: In vitro growth inhibition (GI50), MV4-11. The experiment is classed as cell-based, human. The conditions noted are these: Homo sapiens, MV4-11; Cell lines of leukemia; read-out: GI 50 MV4-11 FLT3 (ITD +/+).
The subject of another experiment is HL-60 (FLT3 wild type). As to the kind of experiment: In vitro growth inhibition (GI50), HL-60. The experiment is classed as cell-based. The conditions noted are these: Homo sapiens, Cell lines of leukemia, read-out: GI 50 HL60 FLT3 (WT). An outline of the steps: (§1)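 After 3–5 days of treatment (top concentration 5,000 nM, serially diluted 2- or 10-fold to 0.01 nM, solvent ≤1%), viability was read by CCK8 at OD450. Growth rate was normalised to the time-zero and solvent-control wells, and GI50 was derived from the curve. Cultures in RPMI1640 + 10% FBS.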

The test system of another experiment is RS4; 11 (FLT3 wild type). As to the kind of experiment: In vitro growth inhibition (GI50), RS4; 11. It counts as cell-based, human. The conditions noted are these: Homo sapiens, RS4-11; Cell lines of leukemia; read-out: GI 50 RS4: 11 FLT3 (WT).
The test system of another experiment is U937 (FLT3 wild-type). Description: In vitro growth inhibition (GI50), U937. The conditions noted are these: Homo sapiens, U-937; Cell lines of leukemia; read-out: GI 50 U937 FLT 3(WT). It counts as cell-based.
Experiment [2] concerns K562 (FLT3 negative expression, positive expression of BCR-ABL fusion protein). As to the kind of experiment: In vitro growth inhibition (GI50), K562. The conditions noted are these: Homo sapiens, Cell lines of leukemia, read-out: GI 50 K562 BCR-ABL. It counts as cell-based.
Experiment [3] deals with Kasumi-1 (c-Kit N822K mutant type). Description: In vitro growth inhibition (GI50), Kasumi-1. It counts as cell-based. The conditions noted are these: Homo sapiens, Cell lines of leukemia, read-out: GI 50 Kasumi-1 Kit (N822K). The procedure, abridged:
as §1

The test system of experiment [4] is RAMOS (positive expression of Brutons tyrosine protein kinase). Description: In vitro growth inhibition (GI50), RAMOS. The experiment is classed as cell-based. The conditions noted are these: Homo sapiens, Cell lines of leukemia, read-out: GI 50 Ramos BTK.
The subject of experiment [5] is MOLM-13 (FLT3 ITD+/− mutant type). As to the kind of experiment: In vitro growth inhibition (GI50), MOLM-13. It counts as cell-based, human. The conditions noted are these: Homo sapiens, MOLM-13; Cell lines of leukemia; read-out: GI 50 MOLM-13 FLT3 (ITD+/−).
Experiment [6] concerns OCI-AML3 (NPMc+ mutant type). As to the kind of experiment: In vitro growth inhibition (GI50), OCI-AML3. It counts as cell-based. The conditions noted are these: Homo sapiens, OCI-AML-3; Cell lines of leukemia; read-out: GI 50 OCI- AML3 NPMc+.
Experiment [7] relates to KG-1 (expressing FGFR1OP2-FGFR1 fusion protein). Description: In vitro growth inhibition (GI50), KG-1. The experiment is classed as cell-based. The conditions noted are these: Homo sapiens; Cell lines of leukemia; read-out: GI 50 KG-1 FGFR1OP 2-FGFR1.

Regarding `CC(C)(C)c1cc(NC(=O)Nc2ccc(-n3cnc4ccccc43)c(F)c2)no1` [Compound 39, 1-(4-benzimidazol-1-yl-3-fluoro-phenyl)-3-(5-tert-butyl-isoxazol-3-yl)-urea], the GI50 is 100 to 1000 nM in experiment [1]; greater than 1000 nM with HL-60 (FLT3 wild type); greater than 1000 nM in the experiment with RS4; 11 (FLT3 wild type); greater than 1000 nM in the experiment with U937 (FLT3 wild-type); greater than 1000 nM in experiment [2]; greater than 1000 nM in [3]. Also, the GI50 was greater than 1000 nM in [4], 100 to 1000 nM in experiment [5], greater than 1000 nM in experiment [6] and greater than 1000 nM in [7].
On to `CC(C)(C)c1cc(NC(=O)Nc2cc(F)c(-n3cnc4ccccc43)c(F)c2)no1` [Compound 40, 1-(4-benzimidazol-1-yl-3,5-difluoro-phenyl)-3-(5-tert-butyl-isoxazol-3-yl)-urea], for which the GI50 in [1] is 100 to 1000 nM; with HL-60 (FLT3 wild type), greater than 1000 nM; with RS4; 11 (FLT3 wild type), greater than 1000 nM; in the experiment on U937 (FLT3 wild-type), greater than 1000 nM; in [2], greater than 1000 nM; in experiment [3], greater than 1000 nM. The GI50 in experiment [4] is greater than 1000 nM; in experiment [5] it was 100 to 1000 nM; in [6] it was greater than 1000 nM; in experiment [7], greater than 1000 nM.
As to `CC(C)(C)c1cc(NC(=O)Nc2ccc(-n3cnc4ccccc43)cc2Cl)no1` [Compound 41, 1-(4-benzimidazol-1-yl-2-chloro-phenyl)-3-(5-tert-butyl-isoxazol-3-yl)-urea], the GI50 is 10 to 100 nM in experiment [1]; greater than 1000 nM in the experiment with HL-60 (FLT3 wild type); greater than 1000 nM in the experiment on RS4; 11 (FLT3 wild type); greater than 1000 nM in the experiment on U937 (FLT3 wild-type); greater than 1000 nM in [2]; greater than 1000 nM in experiment [3]. The GI50 in experiment [4] is greater than 1000 nM; in experiment [5], 10 to 100 nM; in experiment [6] it was greater than 1000 nM; in experiment [7] it was greater than 1000 nM.
Regarding `CC(C)(C)c1cc(NC(=O)Nc2ccc(-n3cnc4ccccc43)nc2)no1` [Compound 42, 1-(6-benzimidazol-1-yl-pyridin-3-yl)-3-(5-tert-butyl-isoxazol-3-yl)-urea], the GI50 in [1] was 1 to 10 nM; in the experiment with HL-60 (FLT3 wild type), greater than 1000 nM; in the experiment with RS4; 11 (FLT3 wild type) it was greater than 1000 nM; with U937 (FLT3 wild-type), greater than 1000 nM; in [2] it was greater than 1000 nM; in experiment [3], greater than 1000 nM. For the same molecule, the GI50 in experiment [4] is greater than 1000 nM; in experiment [5], 1 to 10 nM; in [6] it was greater than 1000 nM; in experiment [7], greater than 1000 nM.
On to `CC(C)(C)c1cc(NC(=O)Nc2cnc(-n3cnc4ccccc43)nc2)no1` [Compound 43, 1-(2-benzimidazol-1-yl-pyrimidin-5-yl)-3-(5-tert-butyl-isoxazol-3-yl)-urea], for which the GI50 is 10 to 100 nM in experiment [1]; greater than 1000 nM in the experiment on HL-60 (FLT3 wild type); greater than 1000 nM in the experiment on RS4; 11 (FLT3 wild type); greater than 1000 nM in the experiment on U937 (FLT3 wild-type); greater than 1000 nM in experiment [2]; greater than 1000 nM in experiment [3]. Moreover, the GI50 was greater than 1000 nM in experiment [4], 10 to 100 nM in experiment [5], greater than 1000 nM in experiment [6] and greater than 1000 nM in experiment [7].
Regarding `CC(C)(C)c1cc(NC(=O)Nc2ccc(-n3ccc4ccccc43)cc2)no1` [Compound 44, 1-(5-tert-butyl-isoxazol-3-yl)-3-(4-indol-1-yl-phenyl)-urea], the GI50 (in experiment [1]; with HL-60 (FLT3 wild type); with RS4; 11 (FLT3 wild type); in the experiment with U937 (FLT3 wild-type); in [2]; in experiment [3]) was greater than 1000 nM each time. Also, the GI50 in experiment [4], in experiment [5], in experiment [6] and in experiment [7] was greater than 1000 nM throughout.
Regarding `CC(C)(C)c1cc(NC(=O)Nc2ccc(-n3ncc4cccc(F)c43)cc2)no1` [Compound 47, 1-(5-tert-butyl-isoxazol-3-yl)-3-[4-(7-fluoro-indazol-1-yl)-phenyl]-urea], the GI50 in experiment [1] is 100 to 1000 nM; in the experiment on HL-60 (FLT3 wild type) it was greater than 1000 nM; in the experiment with RS4; 11 (FLT3 wild type), greater than 1000 nM; in the experiment with U937 (FLT3 wild-type), greater than 1000 nM; in experiment [2], greater than 1000 nM; in experiment [3], greater than 1000 nM. The GI50 in experiment [4] is greater than 1000 nM; in experiment [5], 100 to 1000 nM; in experiment [6], greater than 1000 nM; in [7] it was greater than 1000 nM.
Turning to `CC(C)(C)c1cc(NC(=O)Nc2ccc(-n3nnc4ccccc43)cc2)no1` [Compound 48, 1-(4-benzotriazol-1-yl-phenyl)-3-(5-tert-butyl-isoxazol-3-yl)-urea], the GI50 is 100 to 1000 nM in [1]; greater than 1000 nM with HL-60 (FLT3 wild type); greater than 1000 nM with RS4; 11 (FLT3 wild type); greater than 1000 nM in the experiment with U937 (FLT3 wild-type); greater than 1000 nM in experiment [2]; greater than 1000 nM in experiment [3]. Further, the GI50 in [4] was greater than 1000 nM; in [5], 100 to 1000 nM; in [6], greater than 1000 nM; in experiment [7] it was greater than 1000 nM.
Turning to `CC(C)(C)c1cc(NC(=O)Nc2ccc(-n3ccc4cccnc43)cc2)no1` [Compound 49, 1-(5-tert-butyl-isoxazol-3-yl)-3-(4-pyrrolo[2,3-b]pyridin-1-yl-phenyl)-urea], the GI50 is 100 to 1000 nM in experiment [1]; greater than 1000 nM in the experiment on HL-60 (FLT3 wild type); greater than 1000 nM with RS4; 11 (FLT3 wild type); greater than 1000 nM with U937 (FLT3 wild-type); greater than 1000 nM in [2]; greater than 1000 nM in [3]. Besides, the GI50 was greater than 1000 nM in [4], 100 to 1000 nM in experiment [5], greater than 1000 nM in experiment [6] and greater than 1000 nM in experiment [7].
In the case of `CC(C)(C)c1cc(NC(=O)Nc2ccc(-n3cnc4cccnc43)cc2)no1` [Compound 50, 1-(5-tert-butyl-isoxazol-3-yl)-3-(4-imidazo[4,5-b]pyridin-3-yl-phenyl)-urea], the GI50 in experiment [1] is 0.1 to 1 nM; in the experiment on HL-60 (FLT3 wild type), greater than 1000 nM; in the experiment with RS4; 11 (FLT3 wild type), greater than 1000 nM; in the experiment on U937 (FLT3 wild-type), greater than 1000 nM; in experiment [2], greater than 1000 nM; in [3], greater than 1000 nM. Besides, the GI50 in experiment [4] was greater than 1000 nM; in experiment [5], 0.1 to 1 nM; in experiment [6], greater than 1000 nM; in experiment [7] it was greater than 1000 nM.
Consider `CC(C)(C)c1cc(NC(=O)Nc2ccc(-n3cnc4cc(Br)cnc43)cc2)no1` [Compound 51, 1-[4-(6-bromo-imidazo[4,5-b]pyridin-3-yl)-phenyl]-3-(5-tert-butyl-isoxazol-3-yl)-urea], for which the GI50 in experiment [1] is 1 to 10 nM; in the experiment with HL-60 (FLT3 wild type) it was greater than 1000 nM; with RS4; 11 (FLT3 wild type), greater than 1000 nM; in the experiment with U937 (FLT3 wild-type), greater than 1000 nM; in experiment [2], greater than 1000 nM; in experiment [3] it was greater than 1000 nM. The GI50 in experiment [4] is greater than 1000 nM; in [5], 1 to 10 nM; in [6], greater than 1000 nM; in experiment [7], greater than 1000 nM.
Take `CC(C)(C)c1cc(NC(=O)Nc2ccc(-n3cnc4cc(C(F)(F)F)cnc43)cc2)no1` [Compound 52, 1-(5-tert-butyl-isoxazol-3-yl)-3-[4-(6-trifluoromethyl-imidazo[4,5-b]pyridin-3-yl)-phenyl]-urea]: the GI50 in experiment [1] was 1 to 10 nM; with HL-60 (FLT3 wild type), greater than 1000 nM; in the experiment with RS4; 11 (FLT3 wild type), greater than 1000 nM; in the experiment on U937 (FLT3 wild-type), greater than 1000 nM; in [2], greater than 1000 nM; in experiment [3] it was greater than 1000 nM. Moreover, the GI50 is greater than 1000 nM in experiment [4], 1 to 10 nM in [5], greater than 1000 nM in experiment [6] and greater than 1000 nM in experiment [7].
As for `Cc1ccc2ncn(-c3ccc(NC(=O)Nc4cc(C(C)(C)C)on4)cc3)c2n1` [Compound 54, 1-(5-tert-butyl-isoxazol-3-yl)-3-[4-(5-methylimidazo[4,5-b]pyridine-3-yl)-phenyl]-urea], the GI50 in experiment [1] was 1 to 10 nM; in the experiment on HL-60 (FLT3 wild type), greater than 1000 nM; in the experiment on RS4; 11 (FLT3 wild type), greater than 1000 nM; in the experiment on U937 (FLT3 wild-type) it was greater than 1000 nM; in [2] it was greater than 1000 nM; in experiment [3], greater than 1000 nM. In addition, the GI50 in experiment [4] is greater than 1000 nM; in [5], 1 to 10 nM; in experiment [6] it was greater than 1000 nM; in [7] it was greater than 1000 nM.
As for `Cc1ccnc2c1ncn2-c1ccc(NC(=O)Nc2cc(C(C)(C)C)on2)cc1` [Compound 55, 1-(5-tert-butyl-isoxazol-3-yl)-3-[4-(7-methylimidazo[4,5-b]pyridin-3-yl)-phenyl]-urea], the GI50 is 10 to 100 nM in experiment [1]; greater than 1000 nM in the experiment on HL-60 (FLT3 wild type); greater than 1000 nM in the experiment on RS4; 11 (FLT3 wild type); greater than 1000 nM in the experiment with U937 (FLT3 wild-type); greater than 1000 nM in experiment [2]; greater than 1000 nM in experiment [3]. Also, the GI50 was greater than 1000 nM in experiment [4], 10 to 100 nM in experiment [5], 100 to 1000 nM in [6] and greater than 1000 nM in experiment [7].

The values above are taken from patent US10647680B2, “Urea compound, preparation method therefor and medical use thereof” (Ancureall Pharmaceutical (Shanghai) Co., Ltd., priority 2016, dated 2020).
